Earlier results on one molecule are cited in patent US8420699B1, “Composition and methods of treatment using deionized and ozonated solution” (priority 2002, dated 2013).

Each structure is given as a SMILES string.

On to `O=[O+][O-]` [ozone], for which the half-life of ozone (at 68° F.) was 45 min. For the same molecule, the “concentrated effectiveness relative to initial value” (in two hours after generation) is reported as 16 % of its initial value.
